Measured values reported in the SangsterLogP compilation.

experiment: method code SF-ESR, from DOI: 10.3109/10715769009149900, PMID: 2175281; conditions: pH 2.5

Row | logD | Compound
1 | 1.11 | CC1(C)C=C(C(=O)O)C(C)(C)N1O
2 | 0.46 | CC1(C)[C@H](C(=O)O)[C@H](C(=O)O)C(C)(C)N1O

same assay, conditions: pH 7.0

Row | Compound | logD
3 | CC1(C)CC(CO)C(C)(C)N1O (stereo unspecified) | 0.34
4 | CC1(C)CC(O)CC(C)(C)N1O | 0.63
5 | CC1(C)CC(C(N)=O)C(C)(C)N1O (stereo unspecified) | -0.21
6 | CC1(C)C=CC(C)(C)N1O | 1.31
7 | CC1(C)CC(=O)CC(C)(C)N1O | 0.12

Now from value to compound:

Row | logD | Compound
8 | 0.25 | CC1(C)C=C(C(N)=O)C(C)(C)N1O
9 | 1.78 | CC1(C)C=CCC(C)(C)N1O

same assay, conditions: pH 12.0

Row | Compound | logD
10 | CC1(C)CC(CN)C(C)(C)N1O (stereo unspecified) | 0.36
11 | CN(C)CCN(C)CC1=CC(C)(C)N(O)C1(C)C | 0.91
12 | CN(C)CC1=CC(C)(C)N(O)C1(C)C | 0.7

The remaining lines, values ahead:

Row | logD | Compound
13 | 1.88 | CC1(C)C=C(CN2CCCCC2)C(C)(C)N1O
14 | 1.03 | CC1(C)CC(N)C(C)(C)N1O (stereo unspecified)
15 | 1.58 | CC1(C)C=C(CN2CCCCC2)CC(C)(C)N1O
16 | 1.14 | CC1(C)C=C(CN2CCOCC2)CC(C)(C)N1O
